US20230414775A1, “TUBULYSINS AND PROTEIN-TUBULYSIN CONJUGATES” (priority 2021, published 2023)
Read-outs that look alike come from different tables or passages of the source.

Key:
SK-BR-3 cells = test: SK-BR-3 anti-proliferation assay for payloads (CellTiter-Glo); format: cell-based; conditions: Homo sapiens, free payload, 120-144 h, read-out: SKBR3
Protocol: The cell line used in the anti-proliferation assays was SK-BR-3, a human breast, adenocarcinoma (pleural effusion) cell line. The cells were grown in McCoy's 5a Medium+10% FBS. To run the assay for payloads, the cells (40 μL, 700 cells) were added to each well in a 384-well plate and incubated for 24 hours at 37° C. with 5% CO2. Then the cells were treated with test compounds at various concentrations using HPD300, and then normalize the DMSO to 0.5%. The control wells contain cells and the medium but lack the test compounds. The plates were incubated for 120 h at 37° C. with 5% CO2. To run the assay for ADCs and some key payloads, the cells (80 μL, 1000 cells) were added to each well in a 96-well plate and incubated for twenty-four hours at 37° C. with 5% CO2. Next, the ADCs or payloads were diluted with Opti-Mem with 0.1% BSA. The cells were treated with test compounds or ADCs (20 μL) at various concentrations in appropriate cell culture medium (total volume, 0.1 mL). The final concentration of DMSO was adjusted to 0.2% and the Opti-Mem with 0.1% BSA was adjusted to 5%. The control wells contained cells and the medium but lacked the test compounds. The plates were incubated for 144 h at 37° C. with 5% CO2. CTG reagent was then added to the wells (25 μL/384-well or 100 μL/96-well). After the plates were shaken for 10 min and then incubated for 10 min at room temperature, paste the clear bottom with white back seal and record luminescence with Envision. The inhibition % was calculated according to the following equation: inhibition %=[1-(assay-blank)/(control-blank)]×100.

HCT15 cells = test: HCT15 anti-proliferation / cell killing assay (CellTiter-Glo), with or without verapamil; format: cell-based, human; conditions: Homo sapiens
Protocol: The cell line used in the anti-proliferation assays was HCT15, a human colon, colorectal carcinoma cell line. The HCT15 cells were grown in RPMI medium 1640+10% FBS. To run the assay, the cells (40 μL, 400 cells) were added to each well in a 384-well plate and incubated for twenty-four hours at 37° C. with 5% CO2. One hour before adding compounds, freshly dilute Verapamil to 0.2 mg/ml in ddH2O. Add 1 μL/well diluted Verapamil to Verapamil treatment wells and 1 μL/well ddH2O to the non-Verapamil treatment wells. Return plates to the incubator at 37° C. with 5% CO2. Then the cells were treated with test compounds at various concentrations using HPD300, and then normalize the DMSO to 0.5%. The control wells contained cells and the medium but lack the test compounds. The plates were incubated for 120 hours at 37° C. with 5% CO2. CTG reagent was then added to the wells (25 μL). After the plates were shaken for 10 min and then incubated for 10 min at room temperature, paste the clear bottom with white back seal and record luminescence with Envision. The inhibition % was calculated according to the following equation: inhibition %=[1−(assay-blank)/(control-blank)]×100.

[1] = Plasma stability test of payloads (LC-MS/MS, half-life); format: in vitro ADME; conditions: human plasma, 37° C., time points 0-24 h, read-out: Human plasma stability T1/2 (converted)
Protocol: Stock solutions were prepared at 10 mM in DMSO for the test compound. Aliquots of the stock solutions were diluted to 0.02 mM in 0.05 M sodium phosphate buffer containing 0.5% BSA as the dosing solution. Then 10 μL of the dosing solutions were dosed into 90 μL of pre-warmed plasma (37° C.) in singlet (n=1) in 96-well assay plates to reach a final test concentration of 2 μM. The plates were kept in a 37° C. water bath for the duration of the experiment. At each time point (0, 0.25, 1, 8, 24 h), 400 μL of acetonitrile (containing internal standard) was added into corresponding wells of the assay plates. After the final time point was quenched, the assay plates were shaken on a vibrator (IKA, MTS 2/4) for 10 min (600 rpm/min) and then centrifuged at 5594 g for 15 min (Thermo Multifuge×3R). Aliquots of the supernatant were taken and analyzed by LC-MS/MS. The peak area response ratio to internal standard (PARR) of the compounds at 0.25, 1, 8, and 24 h was compared to the PARR at time zero to determine the percent of test compound remaining at each time point. Half-lives (ti/2) were calculated using Excel software, fitting to a single-phase exponential decay equation.

[2] = HCT15 cells, no verapamil, 120 h (5 days), read-out: HCT-15
[3] = HCT-15, HCT15 cells pre-treated with verapamil, 120 h, read-out: HCT-15 with verapamil

Compound	IC50 (SK-BR-3 cells) [pM]	IC50 (HCT15 cells; [2]) [pM]	IC50 (HCT15 cells; [3]) [pM]	half-life at 2 μM [1] [h]
CCCCCCN(C(=O)[C@@H](NC(=O)[C@H]1CCCCN1C)[C@@H](C)CC)[C@H](C[C@@H](OCC)c1nc(C(=O)N[C@@H](Cc2ccc(NCCO)cc2)CC(C)(C)C(=O)O)cs1)C(C)C (racemic) [PA15, Rac-(R)-4-(2-((1S,3S)-1-ethoxy-3-((2R,3R)—N-hexyl-3-methyl-2-((S)-1-methylpiperidine-2-carboxamido)pentanamido)-4-methylpentyl)thiazole-4-carboxamido)-acid]	314	1700	393	103
CCCCCCN(C(=O)[C@@H](NC(=O)[C@H]1CCCCN1C)[C@@H](C)CC)[C@H](C[C@@H](OC(C)=O)c1nc(C(=O)N[C@@H](Cc2ccc(NCC(=O)O)cc2)CC(C)(C)C(=O)O)cs1)C(C)C (racemic) [PA16, Rac-(R)-4-(2-((1S,3S)-1-acetoxy-3-((2R,3R)—N-hexyl-3-methyl-2-((S)-1-methylpiperidine-2-carboxamido)pentanamido)-4-methylpentyl)thiazole-4-carboxamido)-acid]	19	62	33	327
CCCCCCN(C(=O)[C@@H](NC(=O)[C@@]1(C)CCCN1)[C@@H](C)CC)[C@H](C[C@@H](OC(C)=O)c1nc(C(=O)N[C@@H](Cc2ccc(N)c(F)c2)CC(C)(C)C(=O)O)cs1)C(C)C [Compound P15, reference compound]	68	1660	190	15.1
CCCCCCN(C(=O)[C@@H](NC(=O)[C@H]1CCCCN1CCO)[C@@H](C)CC)[C@H](C[C@@H](OC(C)=O)c1nc(C(=O)N[C@@H](Cc2ccc(N)cc2)CC(C)(C)C(=O)O)cs1)C(C)C [PA7, (4S)-4-({2-[(1R,3R)-1-(acetyloxy)-3-[(2S,3S)—N-hexyl-2-{[(2R)-1-(2-hydroxyethyl)piperidin-2-yl]formamido}-3-methylpentanamido]-4-methylpentyl]-1,3-thiazol-4-yl}formamido)-5-(4-aminophenyl)-2,2-dimethylpentanoic acid]	38	122	37	65.9
CCCCCCN(C(=O)[C@@H](NC(=O)[C@H]1CCCCN1CCO)[C@@H](C)CC)[C@H](C[C@@H](OCC)c1nc(C(=O)N[C@@H](Cc2ccc(N)cc2)CC(C)(C)C(=O)O)cs1)C(C)C [PA13, (S)-5-(4-aminophenyl)-4-(2-((1R,3R)-1-ethoxy-3-((2S,3S)—N-hexyl-2-((R)-1-(2-hydroxyethyl)piperidine-2-carboxamido)-3-methylpentanamido)-4-methylpentyl)thiazole-4-carboxamido)-2,2-dimethylpentanoic acid]	288	1310	284	313
